The record followed here is patent US20160175224A1, “ANTIPERSPIRANT COMPOSITION” (priority 2014, published 2016).

The assay deals with subjects' underarms. Kind of assay: In vivo study of eight-hour antiperspirant efficacy (FDA Guidelines for Effectiveness Testing of OTC Antiperspirant Drug Products, hot room, weighed pads). Set-up: species or system human. Conditions: for Antiperspirant activity against FDA Guidelines success criteria (minimum of 20% sweat reduction in at least 50% volunteers): eight-hour efficacy, day 30 of application period; for % of subjects with reduction in relation to control / Average % of sweat reduction (mg): roll-on compositions of Examples 7-9 applied daily to one underarm for 30 days, eight hours after, hot room 37.8° C.; for % of subjects with reduction in relation to control: other underarm untreated control, 30-40% RH, 80 minutes, fifteen subjects per composition; for Average % of sweat reduction (mg): relative to untreated control underarm, pad weights. The method, then: An in vivo study of the eight-hour antiperspirant efficacy of the compositions of Examples 7, 8 and 9 was performed as follows using the US FOOD AND DRUG ADMINISTRATION Guidelines for Effectiveness Testing of OTC Antiperspirant Drug Products, 2003. Example 7 was comparative, as indicated above.
Fifteen subjects were used to test each composition. Subjects were first subjected to a 21-day conditioning period, which began with a 14 day wash out period. During 14 day wash out period, the subjects used a standard bar soap and bacteriostatic deodorant supplied by the institute running the study. […] Following this, from day 15 to day 21 the subjects were instructed to use only standard soap and discontinue the bacteriostatic deodorant.
During the conditioning period, subjects were instructed and supervised by a trained technician to wash their underarms according to the following procedure: a) wash one of the underarms for 10 seconds with an aqueous solution of standard soap 2.0%; b) rinse thoroughly with running water until the soap is completely removed; c) dry the underarm with a paper towel; and d) repeat the procedure with the other underarm.
After the wash out period was completed, each subject was checked for unauthorized use of antiperspirant products during the conditioning period using a cotton swab in the underarms.
Next, a 30 day application period began. 150 cm^2, randomly distributed areas were marked on each subjects' underarm. Test samples were then applied to one underarm of each subject, while the other underarm was untreated as a control every day during the 30 day application period. Subjects waxed or shaved their underarms every Friday evening.
On day 30 of the 30 day application period, each subject was provided with a 100% cotton t-shirt previously washed with water and neutral soap without fragrance and again washed only with water. The subjects were instructed to wear the T-shirts for eight hours.
After eight hours, the subjects were placed in a room at 37.8° C.±1° C. and relative humidity between 30% and 40% for 80 minutes. After 40 minutes in the hot room, pads previously weighed and stored in closed polyethylene bags were removed from the bags and placed immediately onto the subjects' underarms, and then replaced every 20 minutes. Subjects ingested 200 mL of water when entering the hot room and also 40 minutes later in order to maintain the internal level of hydration, allowing the sweat to flow freely and evidencing only the effects of the formulation of the product tested. The initial 40 minute period was considered as an acclimatization period.
Used pads were collected every 20 minutes and weighed. The weights of the pads pre- and post-use were compared according to the FDA Guidelines using statistical analysis with the Wilcoxon Signed Rank test (FDA protocol) and the Student-t test paired with the unilateral hypothesis of improvement for sweating assessment. The confidence level considered in the comparative analysis was 95%. Software: XLSTAT 2013 and MINITAB 14.

With “dipeptide diaminobutyroyl benzylamide diacetate”, the “Antiperspirant activity against FDA Guidelines success criteria (minimum of 20% sweat reduction in at least 50% volunteers)” value is reported as “confirms antiperspirant activity”, the “% of subjects with reduction in relation to control” value (“% of subjects with reduction” below) was 92.3% and the “Average % of sweat reduction (mg)” value was found to be 25.6%.

In the case of “acetyl hexapeptide-8 [reference compound]”, the “Antiperspirant activity against FDA Guidelines success criteria (minimum of 20% sweat reduction in at least 50% volunteers)” value is reported as “did not meet success criteria”, the “% of subjects with reduction” value worked out at 66.7% and the “Average % of sweat reduction (mg)” value is reported as 8.0%. For the same substance, the “Average % of sweat reduction (mg)” value (listed as acetyl hexapeptide-8) worked out at 8.0%.

acetyl octapeptide-3: the “Antiperspirant activity against FDA Guidelines success criteria (minimum of 20% sweat reduction in at least 50% volunteers)” value is “confirms antiperspirant activity”, the “% of subjects with reduction” value is given as 81.8% and the “Average % of sweat reduction (mg)” value amounted to 20.7%.
